{"source": "patent US8816095B2", "about": "“Na channels, disease, and related assays and compositions” (Georgetown University, priority 2008, dated 2014)", "key": {"CWR22rv-1 cells": {"tested_on": "CWR22rv-1 cells", "test": "CWR22rv-1 prostate cancer cell death (propidium iodide, FACS)", "assay_type": "cell-based, human", "experimental": "CWR22Rv1 cells (ATCC, Manassas, Va.) were seeded in 6 well tissue culture plate at density of 300,000 cells/well and maintained in RPMI 1640 (Mediatech, Herndon, Va.) containing 10% fetal bovine serum, 2.5 mM L-glutamine, and penicillin-streptomycin (100 IU/ml and 100 μg/ml, respectively) at 37° C. with 5% CO2. Cells were then switched to serum free RPMI media overnight prior to drug treatment. Compounds were dissolved in 100% dimethylsulfoxide (DMSO) and diluted to the desired concentrations in serum free RPMI. Cells were treated with indicated drug concentrations (in triplicate per treatment point) for 24, 48, 72 hour. After treatment, cells were harvested by trypsinization and fixed in 70% ethanol. The fixed cells were then stained with propidium iodide (50 μg/ml) after treatment with RNase (5 μg/ml). The stained cells were analyzed for DNA content using FACSsort (Becton Dickinson). Cell cycle fractions were quantified with Cell Quest (Becton Dickinson) or ModFit LT (Verity Software House)."}, "[1]": {"details": "mouse, in vivo, ip"}, "hNav1.7": {"molecular_target": "T1, hNav1.7 (Homo sapiens, UniProt Q15858)", "T1 construct": "expressed in transfected cells; host or cells: HEK293", "T1 sequence (Q15858 whole entry, canonical isoform)": "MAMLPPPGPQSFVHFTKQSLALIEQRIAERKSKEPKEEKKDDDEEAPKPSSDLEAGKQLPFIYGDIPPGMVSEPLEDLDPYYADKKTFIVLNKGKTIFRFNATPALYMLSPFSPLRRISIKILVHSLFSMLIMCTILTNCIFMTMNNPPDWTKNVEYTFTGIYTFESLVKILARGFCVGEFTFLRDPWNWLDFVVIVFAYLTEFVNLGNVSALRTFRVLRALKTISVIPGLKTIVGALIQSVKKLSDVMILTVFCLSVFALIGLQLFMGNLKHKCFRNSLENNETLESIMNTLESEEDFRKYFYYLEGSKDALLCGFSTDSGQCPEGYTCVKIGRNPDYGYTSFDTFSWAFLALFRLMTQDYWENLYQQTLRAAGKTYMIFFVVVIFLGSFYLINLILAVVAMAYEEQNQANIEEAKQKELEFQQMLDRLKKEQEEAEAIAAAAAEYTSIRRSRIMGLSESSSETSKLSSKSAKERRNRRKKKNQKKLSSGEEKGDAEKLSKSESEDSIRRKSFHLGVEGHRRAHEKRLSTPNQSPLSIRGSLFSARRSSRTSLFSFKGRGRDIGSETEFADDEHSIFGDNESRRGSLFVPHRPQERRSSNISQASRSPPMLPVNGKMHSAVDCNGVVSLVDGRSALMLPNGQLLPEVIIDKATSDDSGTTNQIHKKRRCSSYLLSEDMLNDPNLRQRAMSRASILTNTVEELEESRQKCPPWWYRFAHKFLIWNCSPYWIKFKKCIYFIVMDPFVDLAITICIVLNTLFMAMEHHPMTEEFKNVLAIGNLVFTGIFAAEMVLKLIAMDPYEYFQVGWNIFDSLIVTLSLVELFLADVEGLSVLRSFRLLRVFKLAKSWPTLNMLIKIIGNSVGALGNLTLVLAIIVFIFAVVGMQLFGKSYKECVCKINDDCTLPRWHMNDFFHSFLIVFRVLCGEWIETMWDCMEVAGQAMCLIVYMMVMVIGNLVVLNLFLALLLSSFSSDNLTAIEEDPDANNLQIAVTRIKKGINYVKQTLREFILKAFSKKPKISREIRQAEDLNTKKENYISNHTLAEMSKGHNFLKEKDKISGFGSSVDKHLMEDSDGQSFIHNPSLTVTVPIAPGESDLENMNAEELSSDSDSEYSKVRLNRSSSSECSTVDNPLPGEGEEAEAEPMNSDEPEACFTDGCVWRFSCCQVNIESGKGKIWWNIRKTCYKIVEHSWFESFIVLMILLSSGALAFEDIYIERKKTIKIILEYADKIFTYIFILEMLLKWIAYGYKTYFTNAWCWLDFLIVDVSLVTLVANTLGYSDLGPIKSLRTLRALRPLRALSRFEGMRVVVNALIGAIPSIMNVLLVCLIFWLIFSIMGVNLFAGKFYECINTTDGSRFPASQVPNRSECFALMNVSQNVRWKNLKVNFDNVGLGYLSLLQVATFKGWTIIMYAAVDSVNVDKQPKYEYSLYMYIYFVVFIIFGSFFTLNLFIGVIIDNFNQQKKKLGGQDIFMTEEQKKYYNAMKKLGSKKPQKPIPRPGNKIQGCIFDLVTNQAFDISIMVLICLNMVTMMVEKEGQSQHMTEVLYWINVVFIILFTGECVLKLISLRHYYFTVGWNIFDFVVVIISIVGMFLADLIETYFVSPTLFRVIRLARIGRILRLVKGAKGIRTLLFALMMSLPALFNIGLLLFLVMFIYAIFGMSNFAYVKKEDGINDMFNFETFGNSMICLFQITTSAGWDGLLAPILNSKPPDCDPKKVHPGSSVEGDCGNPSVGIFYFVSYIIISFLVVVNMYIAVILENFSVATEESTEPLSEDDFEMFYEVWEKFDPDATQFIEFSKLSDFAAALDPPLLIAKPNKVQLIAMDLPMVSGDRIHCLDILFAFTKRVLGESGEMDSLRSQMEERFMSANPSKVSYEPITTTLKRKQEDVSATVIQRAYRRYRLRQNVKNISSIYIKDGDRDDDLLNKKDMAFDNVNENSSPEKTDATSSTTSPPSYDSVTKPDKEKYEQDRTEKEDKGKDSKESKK", "test": "Fluorescent (FRET) based sodium channel assay, hNav1.7", "assay_type": "cell-based", "details": "HEK293 stably transfected with hNav1.7, 20 μM veratridine, read-out: hNav 1.7 IC50", "experimental": "Two isoforms of the channel were examined: hNav1.5, a cardiac sodium channel associated with arrhythmias, and hNav1.7, an isoform found in the peripheral nervous system.\nHEK293 cells stably transfected with either hNav1.5 or hNav1.7 were plated at approximately 11,000-20,000 cells/well in flat bottom, poly-D-lysine coated black-wall, clear-bottom, 384-well plates (Becton Dickinson, Bedford, Mass.), and incubated overnight at 37° C. in a 10% CO2 atmosphere in growth medium. Cells were washed with 0.03 mL of Dulbecco's phosphate buffered saline (D-PBS) containing calcium and magnesium. Cells were then incubated with 0.025 mL of a solution containing 10 μM CC2-DMPE and 0.02% pluronic acid in D-PBS with calcium and magnesium; supplemented with 10 mM glucose, and 10 mM Hepes-NaOH, pH 7.4. […] Afterwards, cells were incubated in the dark at 25° C. for 45 min with 0.025 mL of a solution containing 5 μM DiSBAC2(3) in VIPR-S, in the absence or presence of test compound. At the end of the incubation period, the plate was placed in a FLIPR TETRA instrument (MDS Analytical Technologies, Sunnyvale Calif.), illuminated at 390-420 nm, and fluorescence emissions were recorded at approximately 1 Hz at 460 and 580 nm. Following a 7 second baseline reading, 0.025 mL of VIPR-S containing 10 μM veratridine for Nav1.5 or 20 μM veratridine for Nav1.7 was added to each well, and the emissions of both dyes were recorded for an additional 33 seconds. The change in fluorescence resonance energy transfer (FRET) ratio (F/F0) was calculated as: F/F0=((A460/A580/(I460/I580) where A and I represent the readings after or before addition of veratridine, respectively, at the indicated wavelengths. For I, the readings from 2-5 seconds were averaged, and for A, readings from 3 seconds after the signal had reached a plateau level (usually within 30-40 s) were also averaged. Triplicate measurements were performed for each experimental condition and the data were averaged."}, "[2]": {"tested_on": "human prostate xenograft PC3", "test": "PC3 xenograft study", "assay_type": "in vivo", "details": "mice bearing PC3 xenografts; 10 mg/kg ip every other day", "experimental": "Intraperitoneally (ip) 10 mg/kg of racemic (±)-1 and each enantiomer was administered in mice bearing PC3 xenografts (FIG. 16). This dose was administered qd every other day for 24 days and effects on reducing the tumor volume were measured.\nPC-3 cell line (ATCC, Manassas, Va.) was cultured in RPMI-1640 with L-glutamine (Mediatech Inc., Herdon, Va.) containing 5% fetal bovine serum (FBS), 2.5 mM L-glutamine at 37° C. with 5% CO2.\nMale athymic balbc/nude mice (18-22 g) were injected with 3×106 (0.3 mL) of the human prostate cancer cells (PC3). The human prostate cancer cells were injected in the subcutaneous tissue of the right axillary region of the mice. One week after the injection, the mice were randomly sorted into four groups with 6 mice per group. […] The stock of each compound was added to polyethylene glycol 400 (PEG) (Hampton) and PBS in a 1:1 ratio. The test concentrations were obtained by diluting with PEG/PBS. The tumor-bearing mice received an intraperitoneal injection (IP) with either 10 mg/kg of (±)-1, R-(−)-1 or S-(+)-1 or vehicle control respectively once every other day for 4 weeks. At the same time, the tumor size of each mouse was measured by caliper and calculated by the formula: Length×width×height/2."}, "hERG potassium channels": {"molecular_target": "T2, hERG potassium channels (Homo sapiens, UniProt Q12809)", "T2 construct": "expressed in transfected cells; host or cells: HEK-293 (membranes)", "T2 sequence (Q12809 whole entry)": "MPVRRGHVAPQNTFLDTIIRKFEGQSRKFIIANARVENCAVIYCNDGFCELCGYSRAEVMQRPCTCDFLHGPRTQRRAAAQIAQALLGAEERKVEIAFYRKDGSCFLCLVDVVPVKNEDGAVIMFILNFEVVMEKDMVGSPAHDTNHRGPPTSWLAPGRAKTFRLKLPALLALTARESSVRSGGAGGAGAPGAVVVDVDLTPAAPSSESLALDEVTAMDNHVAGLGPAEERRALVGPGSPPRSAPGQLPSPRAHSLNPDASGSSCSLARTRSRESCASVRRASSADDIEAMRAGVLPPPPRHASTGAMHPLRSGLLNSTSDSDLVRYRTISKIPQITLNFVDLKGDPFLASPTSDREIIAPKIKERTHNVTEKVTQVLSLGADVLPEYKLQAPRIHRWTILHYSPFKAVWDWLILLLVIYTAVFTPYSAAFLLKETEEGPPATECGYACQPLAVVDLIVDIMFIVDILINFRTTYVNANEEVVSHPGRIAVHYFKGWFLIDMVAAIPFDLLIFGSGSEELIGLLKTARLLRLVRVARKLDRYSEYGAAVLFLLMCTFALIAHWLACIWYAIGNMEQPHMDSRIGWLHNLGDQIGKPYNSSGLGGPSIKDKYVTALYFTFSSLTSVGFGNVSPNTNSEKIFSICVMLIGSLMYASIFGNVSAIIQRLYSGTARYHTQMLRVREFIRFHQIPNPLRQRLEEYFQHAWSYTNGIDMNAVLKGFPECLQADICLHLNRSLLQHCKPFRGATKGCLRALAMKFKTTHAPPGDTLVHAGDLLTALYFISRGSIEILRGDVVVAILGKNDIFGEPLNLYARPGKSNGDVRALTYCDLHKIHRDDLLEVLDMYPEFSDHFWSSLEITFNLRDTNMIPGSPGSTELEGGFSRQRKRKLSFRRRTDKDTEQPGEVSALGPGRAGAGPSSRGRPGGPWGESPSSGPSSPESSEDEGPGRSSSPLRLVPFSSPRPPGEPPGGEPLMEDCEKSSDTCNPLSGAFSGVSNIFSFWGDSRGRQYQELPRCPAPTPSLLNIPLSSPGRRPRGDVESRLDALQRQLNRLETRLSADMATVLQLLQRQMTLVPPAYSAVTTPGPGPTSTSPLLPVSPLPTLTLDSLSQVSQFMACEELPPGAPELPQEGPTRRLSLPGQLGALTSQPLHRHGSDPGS", "test": "hERG binding assay ([35S]MK-499 displacement)", "details": "[35S]MK-499, HEK-293 hERG membranes", "from_the_text": "All four compounds were also counter-screened for human ether-a-go-go-related gene (hERG) activity against the radio-ligand MK-0499. Blockade of hERG K^+ channels is widely regarded as the predominant cause of drug-induced QT prolongation. (Aronov, A J Med Chem. 2006 Nov. 16; 49(23):6917-21).\nMK-499, a potent hERG blocker, was used in a ligand binding assay to evaluate the binding of test compounds to hERG potassium channels as previously described (Wang, J et al. Am J Physiol Heart Circ Physiol, 2003, 284: H256-H267).^2 Test compounds were incubated with 0.05 nM of radiolabeled MK-499 ([35S]MK-499; specific Activity=1,279,010 μCi/μmol) in an assay buffer solution (70 mM NaCl, 60 mM KCl, 10 mM HEPES/NaOH (pH 7.4), 2 mM MgCl2, 1 mM CaCl2) also containing membranes isolated from HEK-293 cells stably expressing hERG channels in 96 well polypropylene deep-well assay plates at room temperature (25° C.) for >90 min. Assay plates were rinsed three time with buffer (130 mM NaCl, 10 mM HEPES/NaOH (pH 7.4), 2 mM MgCl2, 1 mM CaCl2) and the solution transferred to a Packard FilterMate Universal Harvester apparatus and filtered using PerkinElmer UniFilter-96 GF/C 96-well white microplates pre-soaked with 0.3% BSA (10 mL/L of 30% BSA). Plates were dried overnight at 37° C., or for 2 hrs at 56° C. The bottom of the plates were sealed and 0.025 mL of Microscint 0 was added to each well. The plates were top sealed and counted for 2 min/well in a Packard TopCount Scintillation counter. Test compounds were evaluated in a five point titration format using half-log steps from 0.3 μM to 30 μM. […] Less than 5% of the added radioactivity was retained on the filters. Assays were performed in triplicate."}}}
{"smiles": "CCCCCCCC(O)(C(N)=O)c1cccc(Cl)c1", "note": "(racemic) [(±)-1, 2-(3-chloro-phenyl)-2-hydroxy-nonanoic acid amide]", "values": [{"measurement": "cell death of CWR22rv-1 cells", "setting": "CWR22rv-1 cells; 25 μM, after 24 h", "value": "marginal effects"}, {"measurement": "cell death of CWR22rv-1 cells", "setting": "CWR22rv-1 cells; after 72 h", "value": 25, "unit": "%"}, {"measurement": "acute rotorod toxicity observations", "setting": "[1]", "value": "No deaths, spasms, respiratory disease was reported"}, {"measurement": "IC50", "setting": "hNav1.7", "value": 1810, "unit": "nM"}, {"measurement": "decrease in tumor volume", "setting": "[2]", "value": 62, "unit": "%"}, {"measurement": "% inhibition for hERG assay, 0.3 μM", "setting": "hERG potassium channels; 0.3 μM", "value": 15, "unit": "%"}, {"measurement": "% inhibition for hERG assay, 1 μM", "setting": "hERG potassium channels; 1 μM", "value": 17, "unit": "%"}, {"measurement": "% inhibition for hERG assay, 3 μM", "setting": "hERG potassium channels; 3 μM", "value": 15, "unit": "%"}, {"measurement": "% inhibition for hERG assay, 10 μM", "setting": "hERG potassium channels; 10 μM", "value": 51, "unit": "%"}, {"measurement": "% inhibition for hERG assay, 30 μM", "setting": "hERG potassium channels; 30 μM", "value": 78, "unit": "%"}]}
